From patent US8420657B2 (Novartis AG, priority 2008, dated 2013)

Assays:
[1] = target: T1, GST-JAK2(808-1132) (Homo sapiens, UniProt O60674); assay: JAK2 kinase assay (Caliper mobility shift, LabChip 3000); type: biochemical
T1 construct: GST-JAK2(808-1132); purchased Invitrogen (Carlsbad, USA) #4288
Procedure, shortened: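 Recombinant GST-JAK2(808-1132) kinase domain with FITC-labelled JAK3tide peptide substrate and ATP; 60 min at 30 °C, EDTA stop. Substrate/product ratio read by microfluidic mobility shift; compounds at 8 final concentrations, 10 to 0.003 μM.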

[2] = system: JAK1/JAK2-dependent nuclear translocation of STAT1-GFP in HT1080 fibrosarcoma cells; assay: STAT1 nuclear translocation assay (Cellomics), IFN-γ stimulated HT1080 STAT1-GFP cells; type: cell-based; conditions: Homo sapiens, HT-1080, STAT1 translocation pathway
From the text: The medium-throughput (96-well format) cellular automated fluorescence microscopy Cellomics assay can be routinely used to assess the functional activation of Janus Kinases (JAKs), based on the nuclear translocation of their substrate, Signal Transducer and Activator of Transcription (STAT). Nuclear translocation can be monitored either in HT1080 fibrosarcoma cells stably transfected with STAT1 fused to Green Fluorescence Protein (GFP) or in U-2 OS osteosarcoma cells stably transfected with STAT5 fused to Green Fluorescence Protein (GFP). Stimulation of HT1080 cells with interferon-γ (IFN-γ) results in JAK1/JAK2-dependent nuclear translocation of STAT1-GFP, whereas stimulation of U-2 OS cells with recombinant human erythropoietin (rhEpo) results in JAK2-dependent nuclear translocation of STAT5-GFP, both of which can be quantified using the Cellomics Cyto/NucTrans software package. This assay may be used to provide an assessment of the nuclear-cytoplasmic differential (NCD) of STAT-GFP using Hoechst dye to define the boundaries of the nucleus.
HT1080 fibrosarcoma cells may be obtained from ATCC and can be cultured in alpha Modified Eagle Medium with 10% FCS. Cells can be transfected with pEGFP-N2 STAT1 using Fugene 6 Transfection Reagent following the manufacturers' protocol. 24 hours after transfection the medium can be replaced and selected in 1 mg/ml Geneticin.
Compounds can be dissolved in DMSO to a final stock concentration of 10 mM and stored as aliquots at 4° C. Compounds may be pre-diluted in 100% DMSO at 10 mM, 3 mM 1 mM, 0.3 mM, 0.1 mM, 0.03 mM, 0.01 mM and 0.003 mM. Subsequently, compounds may be diluted in medium and added in 50 μl to the cells. The final compound concentrations tested may be 10 μM, 3 μM 1 μM, 0.3 μM, 0.1 μM, 0.03 μM, 0.01 μM and 0.003 μM and the final DMSO concentration can be 0.1%.
HT1080 STAT1-GFP cells may be seeded at a density of 10,000 cells per well in clear-bottom black 96-well Packard View-Plates™. 16-24 hours later, the cells can be treated for 2 hours with 100 ng/ml IFN-γ, washed twice in pre-warmed PBS and fixed in 200 μl of pre-warmed fixation solution (PBS, 3.7% Formaldehyde) for 10 minutes. The plates may be washed twice in 200 μl PBS and incubated, protected from light, in 100 μl of DNA-staining solution (PBS, 0.5 μg/ml Hoechst-33342) for 1 minute. The plates may then be washed once in PBS, and 200 μl PBS finally added per well. The plates, being finally covered with a black adhesive, may be either read directly or stored at 4° C. for later imaging. Where appropriate, the compounds may be added 30 min before stimulation with IFN-γ.
The plates can be read on a Cellomics® ArrayscanII automated fluorescence microscope plate reader equipped with a Mercury-Xenon white light illumination source and a Zeiss Axiovert inverted microscope, using the XF100 dichroic/emission filter cube and matching excitation filters, 10× magnification, and a 0.3 numerical aperture objective. Image acquisition and analysis can be performed using a customized protocol based on the ‘NuclearTranslocation’ Bioapplication. For each well, multiple images (fields) can be acquired until a minimum of 1000 cells are counted using two 2 channels: Channel 1 (Hoechst)=focus+nuclear mask, Channel 2 (GFP)=signal quantification in mask areas as outlined below. Nuclei may be first identified based on the Hoechst staining and a mask generated for each nucleus that then serves as a template to generate a circle (eroded inwards by 1 pixel) and a 3 pixel-wide collar-like ring (off-set outwards by 1 pixel), in which the nuclear and cytoplasmic intensity of GFP, respectively, are quantified in the corresponding channel. High content analysis yields numerous measurements per cell and the GFP intensity differential between the nuclear and the cytoplasmic masks may be chosen as a measure of sub-cellular STAT-GFP relocation. The resulting values may be averaged for all cells in the well to return a single measurement plus standard deviation. […]

T1 sequence (O60674 808-1132): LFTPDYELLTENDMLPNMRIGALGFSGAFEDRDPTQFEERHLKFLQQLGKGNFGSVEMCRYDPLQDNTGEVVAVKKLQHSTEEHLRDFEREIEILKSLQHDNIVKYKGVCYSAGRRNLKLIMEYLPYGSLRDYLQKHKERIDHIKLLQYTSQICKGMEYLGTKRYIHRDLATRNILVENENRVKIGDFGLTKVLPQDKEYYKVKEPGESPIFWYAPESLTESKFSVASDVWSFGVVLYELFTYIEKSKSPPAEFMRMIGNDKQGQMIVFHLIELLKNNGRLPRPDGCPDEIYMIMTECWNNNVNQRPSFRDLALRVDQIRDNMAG

IC50 [1] | IC50 [2] | Compound
9.4 nM | 1460 nM | CC(C)Oc1ccc(Nc2ncc3ccn(-c4ccc(CN5CCOCC5)c(F)c4)c3n2)cc1 [Example 97, [7-(3-Fluoro-4-morpholin-4-ylmethyl-phenyl)-7H-pyrrolo[2,3-d]pyrimidin-2-yl]-(4-isopropoxy-phenyl)-amine]
< 3 nM | 12.5 nM | CCN1CCN(c2ccc(Nc3ncc4ccn(-c5ccc(CC(=O)N6CCS(=O)(=O)CC6)c(F)c5)c4n3)cc2C)CC1 [Example 292, 1-(1,1-Dioxido-thiomorpholin-4-yl)-2-(4-{2-[4-(4-ethyl-piperazin-1-yl)-3-methyl-phenylamino]-pyrrolo[2,3-d]pyrimidin-7-yl}-2-fluoro-phenyl)-ethanone]
9.3 nM | 360 nM | CN1CCN(Cc2ccc(Nc3ncc4ccn(-c5ccc(S(C)(=O)=O)cc5)c4n3)cc2)CC1=O [Example 335, 4-{4-[7-(4-Methanesulfonyl-phenyl)-7H-pyrrolo[2,3-d]pyrimidin-2-ylamino]-benzyl}-1-methyl-piperazin-2-one]
< 3 nM | 430 nM | CN1CCN(Cc2cccc(Nc3ncc4ccn(-c5cc(F)c(C(=O)N6CCOCC6)c(F)c5)c4n3)c2)CC1 [Example 245, (2,6-Difluoro-4-{2-[3-(4-methyl-piperazin-1-ylmethyl)-phenylamino]-pyrrolo[2,3-d]pyrimidin-7-yl}-phenyl)-morpholin-4-yl-methanone]
38 nM | 2620 nM | CS(=O)(=O)c1ccc(-n2ccc3cnc(Nc4ccc(F)c(C(=O)N5CCOCC5)c4)nc32)cc1 [Example 77, {2-Fluoro-5-[7-(4-methanesulfonyl-phenyl)-7H-pyrrolo[2,3-d]pyrimidin-2-ylamino]-phenyl}-morpholin-4-yl-methanone]
12.5 nM | 563 nM | Cc1ccc(Nc2ncc3ccn(-c4cc(F)c(C(=O)N5CCOCC5)c(F)c4)c3n2)cc1Cl [Example 116, {4-[2-(3-Chloro-4-methyl-phenylamino)-pyrrolo[2,3-d]pyrimidin-7-yl]-2,6-difluoro-phenyl}-morpholin-4-yl-methanone]
21 nM | 1580 nM | Cc1ccc(Nc2ncc3ccn(-c4ccc(S(C)(=O)=O)cc4)c3n2)cn1 [Example 229, [7-(4-Methanesulfonyl-phenyl)-7H-pyrrolo[2,3-d]pyrimidin-2-yl]-(6-methyl-pyridin-3-yl)-amine]
14.5 nM | 846 nM | Cc1cc(-n2ccc3cnc(Nc4ccc(OC(C)C)cc4)nc32)ccc1CN1CCOCC1 [Example 111, (4-Isopropoxy-phenyl)-[7-(3-methyl-4-morpholin-4-ylmethyl-phenyl)-7H-pyrrolo[2,3-d]pyrimidin-2-yl]-amine]
3.2 nM | 190 nM | CN1CCN(C(=O)c2ccc(Nc3ncc4ccn(-c5cc(F)c(CN6CCOCC6)c(F)c5)c4n3)cc2)CC1 [Example 2, {4-[7-(3,5-Difluoro-4-morpholin-4-ylmethyl-phenyl)-7H-pyrrolo[2,3-d]pyrimidin-2-ylamino]-phenyl}-(4-methyl-piperazin-1-yl)-methanone]
17 nM | 374 nM | Cc1ccc(Nc2ncc3ccn(-c4ccc(C(=O)N5CCN(C)CC5)cc4)c3n2)cc1C [Example 170, {4-[2-(3,4-Dimethyl-phenylamino)-pyrrolo[2,3-d]pyrimidin-7-y]-phenyl}-(4-methyl-piperazin-1-yl)-methanone]
11.5 nM | 5840 nM | CC(C)Oc1ccc(Nc2ncc3ccn(-c4ccc(N5CCCC5=O)cc4)c3n2)cc1 [Example 105, 1-{4-[2-(4-Isopropoxy-phenylamino)-pyrrolo[2,3-d]pyrimidin-7-yl]-phenyl}-pyrrolidin-2-one]
≤ 3 nM | 479 nM | C[C@@H]1CN(c2ccc(Nc3ncc4ccn(-c5cc(F)c(CN6CCNC(=O)C6)c(F)c5)c4n3)cn2)C[C@H](C)N1 [Example 342, 4-(4-{2-[6-(cis-3,5-Dimethyl-piperazin-1-yl)-pyridin-3-ylamino]-pyrrolo[2,3-d]pyrimidin-7-yl}-2,6-difluoro-benzyl)-piperazin-2-one]
3.6 nM | 865 nM | CC(C)Oc1ccc(Nc2ncc3ccn(-c4ccc(N5CCNCC5=O)cc4)c3n2)cc1 [Example 104, 1-{4-[2-(4-Isopropoxy-phenylamino)-pyrrolo[2,3-d]pyrimidin-7-yl]-phenyl}-piperazin-2-one]
10.5 nM | 720 nM | Cc1cc(Nc2ncc3ccn(-c4ccc(CN5CCOCC5)c(F)c4)c3n2)ccc1F [Example 127, (4-Fluoro-3-methyl-phenyl)-[7-(3-fluoro-4-morpholin-4-ylmethyl-phenyl)-7H-pyrrolo[2,3-d]pyrimidin-2-yl]-amine]
16 nM | 1500 nM | Cc1cc(Nc2ncc3ccn(-c4cc(F)c(CN5CCOCC5)c(F)c4)c3n2)ccc1F [Example 131, [7-(3,5-Difluoro-4-morpholin-4-ylmethyl-phenyl)-7H-pyrrolo[2,3-d]pyrimidin-2-yl]-(4-fluoro-3-methyl-phenyl)-amine]
6.4 nM | 1180 nM | Cc1ccc(Nc2ncc3ccn(-c4ccc(C(=O)N5CCOCC5)cc4)c3n2)cc1F [Example 233, {4-[2-(3-Fluoro-4-methyl-phenylamino)-pyrrolo[2,3-d]pyrimidin-7-yl]-phenyl}-morpholin-4-yl-methanone]
3.1 nM | 170 nM | CS(=O)(=O)c1ccc(-n2ccc3cnc(Nc4ccc(CN5CCCCC5)cc4)nc32)cc1 [Example 42, [7-(4-Methanesulfonyl-phenyl)-7H-pyrrolo[2,3-d]pyrimidin-2-yl]-(4-piperidin-1-ylmethyl-phenyl)-amine]
< 3 nM | 82.5 nM | Cc1cc(Nc2ncc3ccn(-c4ccc(S(C)(=O)=O)cc4)c3n2)ccc1C(=O)N1CCCC1 [Example 75, {4-[7-(4-Methanesulfonyl-phenyl)-7H-pyrrolo[2,3-d]pyrimidin-2-ylamino]-2-methyl-phenyl}-pyrrolidin-1-yl-methanone]
7.4 nM | 434 nM | COc1ccc(Nc2ncc3ccn(-c4ccc(C(=O)N5CCOCC5)c(F)c4)c3n2)cn1 [Example 225, {2-Fluoro-4-[2-(6-methoxy-pyridin-3-ylamino)-pyrrolo[2,3-d]pyrimidin-7-yl]-phenyl}-morpholin-4-yl-methanone]
< 3 nM | – | CC(=O)N1CCN(Cc2ccc(Nc3ncc4ccn(-c5ccc(S(C)(=O)=O)cc5)c4n3)cc2)CC1 [Example 319, 1-(4-{4-[7-(4-Methanesulfonyl-phenyl)-7H-pyrrolo[2,3-d]pyrimidin-2-ylamino]-benzyl}-piperazin-1-yl)-ethanone]
< 3 nM | – | COc1cc(Nc2ncc3ccn(-c4ccc(S(=O)(=O)N(C)C)cc4)c3n2)cc(OC)c1OC [Example 10, N,N-Dimethyl-4-[2-(3,4,5-trimethoxy-phenylamino)-pyrrolo[2,3-d]pyrimidin-7-yl]-benzenesulfonamide]

Compound | IC50 [1] | IC50 [2]
Cc1ccc(Nc2ncc3ccn(-c4ccc(CC(=O)N5CCN(C)CC5)cc4)c3n2)cc1 [Example 149, 1-(4-Methyl-piperazin-1-yl)-2-[4-(2-p-tolylamino-pyrrolo[2,3-d]pyrimidin-7-yl)-phenyl]-ethanone] | 130 nM | 1510 nM
